According to patent US12497359B2, “Acrylamide derivatives” (NRG Therapeutics Ltd, priority 2020, dated 2025):
In brackets after ≈: the same amount, converted by molar mass.

Legend:
[1] = Hepatocyte clearance assay, human; type: in vitro ADME; details: cryopreserved primary human hepatocytes, average value from two experiments, read-out: Human heps intrinsic clearance (CLint)
Method: In vitro clearance studies were performed in primary rat and human hepatocytes (BioIVT). Vials of cryopreserved rat or human hepatocytes were thawed in a 37° C. water bath for 2 min. Cells were transferred into thawing medium (Williams' Medium E containing 30% Percoll, 1× GlutaMAX-1, 15 mM HEPES, 5% fetal bovine serum (FBS), 4 μg/ml insulin, 1 μM dexamethasone), centrifuged at 100 g for 10 min then resuspended in culture medium (Leibovitz's L-15 Medium) at a concentration of 0.5×10^6 viable cells/mL (number of viable cells assessed using AO/PI staining). Hepatocytes (198 μL) were transferred into wells of a 96-well non-coated plate and placed in a 37° C. incubator for 10 min. Test compound solutions were prepared from 10 mM stocks in DMSO, diluted to 100 μM in 50% (v/v in water) acetonitrile. Test compound samples (2 μl) were added to each well of hepatocytes and incubated at 37° C. Samples (25 μl) were collected at t=0, 15, 30, […] and 120 min, mixed with 6 volumes (150 μl) of acetonitrile containing internal standard (100 nM alprazolam, 200 nM caffeine and 100 nM tolbutamide), vortexed for 5 min and centrifuged for 45 min at 3220 g. An aliquot of supernatant (100 μL) was diluted with 100 μL ultra-pure water, and the mixture was used for LC/MS/MS analysis. All incubations were performed in duplicate. Peak areas were determined from extracted ion chromatograms. The slope value, k, was determined by linear regression of the natural logarithm of the remaining percentage of the parent drug vs. incubation time curve. The in vitro half-life (in vitro t1/2) was determined from the slope value: in vitro t1/2=0.693/k. Conversion of the in vitro t1/2 (in min) into the in vitro intrinsic clearance (in vitro CLint, in μL/min/1×10^6 cells) was done using the following equation (mean of duplicate determinations): • in vitro CLint=kV/N • V=incubation volume (0.2 mL) • N=number of hepatocytes per well (0.1×10^6 cells). Microsomal Clearance Assay

[2] = FaSSIF solubility; type: physicochemical; details: kinetic from dmso stock, Fasted state simulated intestinal fluid, 2 hr at 25° C.
Method: Test compounds were prepared as 10 mM stocks in DMSO and 15 μl samples transferred in duplicate into 1.5 mL glass flat bottom vials (BioTech Solutions). Fasted state simulated intestinal fluid (FaSSIF) or PBS (pH 7.4) was added to each vial to final volume of 500 μl. One PTFE encapsulated stir stick (V&P Scientific) was placed in each vial before sealing with PTFE/SIL plugs (BioTech Solutions). Vials were shaken at 1100 rpm for 2 hr at 25° C. Samples were then filtered through MultiScreen Solvinert filter plates (Millipore) via vacuum filtration. Aliquots of filtrate (5 μl) plus 5 μl DMSO were diluted in 490 μl 50% acetonitrile in water containing internal standard. The filtrate was analysed and quantified against a standard of known concentration using LC-MS/MS. Solubility values of the test compound and control compound were calculated as follows: [Sample]=(Area ratiosample*INJ VOL STD*DFsample*[STD])/(Area ratio STD*INJ VOLsample).

[3] = system: mPTP; assay: mPTP activity assay in isolated rat liver mitochondria (Ca2+ retention, Fluo5N, FLIPR); type: biochemical; details: for mPTP Rat liver pIC50*: isolated rat liver mitochondria, average value from multiple experiments (n ≥ 2)
Procedure, shortened: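 Freshly isolated female Sprague Dawley rat liver mitochondria in pH 7.4 buffer with 10 mM succinate, 1 μM rotenone and 2 μM Fluo5N, preincubated 10 min at RT with compound (30 μM to 1 nM). CaCl2 bolus (75 μM) added; IC50 from 10 min fluorescence, normalised to DMSO and 5 μM cyclosporin A.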

[4] = Hepatocyte clearance assay, rat; type: in vitro ADME; details: cryopreserved primary rat hepatocytes, average value from two experiments, read-out: Rat heps intrinsic clearance (CLint)
Procedure, shortened: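 Cryopreserved rat or human hepatocytes at 0.5×10^6 viable cells/mL in L-15 medium, compound incubated at 37° C. with sampling to 120 min, in duplicate; parent remaining by LC/MS/MS. Half-life from ln(% remaining) vs time slope; CLint (μL/min/1×10^6 cells) = kV/N, V 0.2 mL, N 0.1×10^6 cells.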

hepatocyte CLint at 1 µM [1]	SMILES	solubility at 2 h [2]	mPTP Rat liver pIC50* [3]	hepatocyte CLint at 1 µM [4]	activity in the rat liver mitochondria assay ([3]; comparison among Example compounds, in words)
< 3 µL/min/1e6 cells	C[C@@H]1COc2ccccc2[C@@H]1NC(=O)/C=C/c1ccc2cn[nH]c2c1 (single isomer, unassigned) [Example 15d, (E)-3-(1H-indazol-6-yl)-N-(3-methylchroman-4-yl)acrylamide]	7 µM (≈ 2.33 µg/mL)	7.6		
	O=C(/C=C/c1ccc2cn[nH]c2c1)N[C@@H]1CCc2ccccc21 [Example 3, (R,E)-N-(2,3-dihydro-1H-inden-1-yl)-3-(1H-indazol-6-yl)acrylamide]	7 µM (≈ 2.12 µg/mL)	7.2	28 µL/min/1e6 cells	
< 3 µL/min/1e6 cells	COCc1ccccc1NC(=O)/C=C/c1ccc2cn[nH]c2c1 [Example 29, (E)-3-(1H-indazol-6-yl)-N-(2-(methoxymethyl)phenyl)acrylamide]	73 µM (≈ 22.4 µg/mL)	7.1	10 µL/min/1e6 cells	

SMILES	hepatocyte CLint at 1 µM [1]	solubility at 2 h [2]	mPTP Rat liver pIC50* [3]	hepatocyte CLint at 1 µM [4]	activity in the rat liver mitochondria assay ([3]; comparison among Example compounds, in words)
C[C@H]1Cc2ccccc2[C@@H]1NC(=O)/C=C/c1ccc2cn[nH]c2c1 (single isomer, unassigned) [Example 14c]	40.4 µL/min/1e6 cells	8 µM (≈ 2.54 µg/mL)	7.9	48 µL/min/1e6 cells	highest activity
